Assay results reported in patent US8030498B2, “Benzoylpyrazole compounds and herbicides containing them” (Ishihara Sangyo Kaisha, Ltd., priority 2005, dated 2011).

Key:
[1] = tested on: velvetleaf (Abutilon theophrasti MEDIC.); assay: Test Example 1: foliar treatment, growth inhibition rate, velvetleaf; format: in vivo; settings: 31 g/ha active ingredient, visually observed 17th to 23rd day after application; for pest or weed control at 31 g/ha: Abutilon theophrasti
In short: (§1)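 Plants grown in upland soil in pots were sprayed on the foliage at set leaf stages (corn 2.0–3.5, greenfoxtail 1.0–3.0, rice 1.0–2.5, wheat 1.7–3.4 leaves) with wettable powder or emulsifiable concentrate formulations diluted in water at 500 L/ha plus 0.1 vol % spreader. Growth inhibition was scored visually 17–23 days later.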

barnyardgrass = assay: Test Example 2: soil application on the day after sowing, growth inhibition rate, barnyardgrass; format: in vivo, Echinochloa crus-galli L.; settings: 250 g/ha active ingredient, observed on 19th to 24th day; for inhibition at 250 g/ha: Echinochloa crus-galli
In short: (§2)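 Upland soil pots sown with crop and weed seeds; next day wettable powder or emulsifiable concentrate at prescribed active-ingredient amounts, diluted to 500 L/ha water, sprayed onto soil. Growth inhibition scored visually 19–24 days later, 0 (as untreated) to 100% (complete kill).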

[2] = tested on: redroot pigweed (Amaranthus retroflexus L.); assay: Test Example 1: foliar treatment, growth inhibition rate, redroot pigweed; format: in vivo; settings: 31 g/ha active ingredient, visually observed 17th to 23rd day after application
In short: (§3)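 Visual scoring of growth inhibition, 0% (untreated) to 100% (complete kill), on days 17–23 following post-emergence spray of formulated compound in water (500 L/ha, 0.1 vol % spreader); plants treated at set leaf stages, e.g. corn 2.0–3.5, wheat 1.7–3.4.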

redroot pigweed = assay: Test Example 2: soil application on the day after sowing, growth inhibition rate, redroot pigweed; format: in vivo, Amaranthus retroflexus L.; settings: 250 g/ha active ingredient, observed on 19th to 24th day; for inhibition at 250 g/ha: Amaranthus retroflexus
In short: as §2

rice = assay: Test Example 2: soil application on the day after sowing, growth inhibition rate, rice; format: in vivo, Oryza sativa L.; settings: 250 g/ha active ingredient, observed on 19th to 24th day; for inhibition at 250 g/ha: Oryza sativa
In short: as §2

[3] = tested on: crabgrass (Digitaria sanguinalis L.); assay: Test Example 1: foliar treatment, growth inhibition rate, crabgrass; format: in vivo; settings: 31 g/ha active ingredient, visually observed 17th to 23rd day after application; for pest or weed control at 31 g/ha: Digitaria sanguinalis
In short: as §3

velvetleaf = assay: Test Example 2: soil application on the day after sowing, growth inhibition rate, velvetleaf; format: in vivo, Abutilon theophrasti MEDIC.; settings: 250 g/ha active ingredient, observed on 19th to 24th day; for inhibition at 250 g/ha: Abutilon theophrasti
In short: as §2

corn = assay: Test Example 2: soil application on the day after sowing, growth inhibition rate, corn; format: in vivo, Zea mays L.; settings: 250 g/ha active ingredient, observed on 19th to 24th day; for inhibition at 250 g/ha: Zea mays
In short: as §2

prickly sida = assay: Test Example 2: soil application on the day after sowing, growth inhibition rate, prickly sida; format: in vivo, Sida spinosa L.; settings: 250 g/ha active ingredient, observed on 19th to 24th day; for inhibition at 250 g/ha: Sida spinosa
In short: as §2

[4] = tested on: barnyardgrass (Echinochloa crus-galli L.); assay: Test Example 1: foliar treatment, growth inhibition rate, barnyardgrass; format: in vivo; settings: 31 g/ha active ingredient, visually observed 17th to 23rd day after application; for pest or weed control at 31 g/ha: Echinochloa crus-galli
In short: as §1

[5] = tested on: soybean (Glycine max Merr.); assay: Test Example 1: foliar treatment, growth inhibition rate, soybean; format: in vivo; settings: 31 g/ha active ingredient, visually observed 17th to 23rd day after application
In short: as §3

rice (Oryza sativa L.) = assay: Test Example 1: foliar treatment, growth inhibition rate, rice; format: in vivo; settings: 31 g/ha active ingredient, visually observed 17th to 23rd day after application; for pest or weed control at 31 g/ha: Oryza sativa
In short: (§4)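 Visual growth inhibition rating, 0% (as untreated) to 100% (complete kill), taken 17–23 d after foliar spray. Compound was formulated as wettable powder or EC, diluted to 500 L/ha water with 0.1 vol % agricultural spreader, and applied to pot-grown seedlings of corn (2.0–3.5 leaf), greenfoxtail (1.0–3.0), rice (1.0–2.5) and wheat (1.7–3.4).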

greenfoxtail = assay: Test Example 2: soil application on the day after sowing, growth inhibition rate, greenfoxtail; format: in vivo, Setaria viridis L.; settings: 250 g/ha active ingredient, observed on 19th to 24th day; for inhibition at 250 g/ha: Setaria viridis
In short: as §2

soybean = assay: Test Example 2: soil application on the day after sowing, growth inhibition rate, soybean; format: in vivo, Glycine max Merr.; settings: 250 g/ha active ingredient, observed on 19th to 24th day; for inhibition at 250 g/ha: Glycine max
In short: as §2

[6] = tested on: prickly sida (Sida spinosa L.); assay: Test Example 1: foliar treatment, growth inhibition rate, prickly sida; format: in vivo; settings: 31 g/ha active ingredient, visually observed 17th to 23rd day after application
In short: as §3

corn (Zea mays L.) = assay: Test Example 1: foliar treatment, growth inhibition rate, corn; format: in vivo; settings: 31 g/ha active ingredient, visually observed 17th to 23rd day after application; for pest or weed control at 31 g/ha: Zea mays
In short: as §4

wheat = assay: Test Example 2: soil application on the day after sowing, growth inhibition rate, wheat; format: in vivo, Triticum spp.; settings: 250 g/ha active ingredient, observed on 19th to 24th day; for inhibition at 250 g/ha: Triticum aestivum
From the text: Upland field soil was put into a 1/170,000 hectare pot, and seeds of various plants (barnyardgrass, crabgrass, greenfoxtail, redroot pigweed, prickly sida, velvetleaf, rice, wheat, corn and soybean) were sown. On the day after sowing, wettable powders or emulsifiable concentrates of the compounds of the present invention prepared in accordance with a conventional preparation method, were weighed so that the active ingredients became the prescribed amounts, and diluted with water in an amount corresponding to 500 liter per 1 hectare, followed by soil application with a small sprayer. On the 19th to 24th day after the application, the state of growth of the respective plants was visually observed, and the herbicidal effect was evaluated in accordance with a growth inhibition rate (%) of from 0 (equivalent to the non-treated area) to 100% (complete kill).

crabgrass = assay: Test Example 2: soil application on the day after sowing, growth inhibition rate, crabgrass; format: in vivo, Digitaria sanguinalis L.; settings: 250 g/ha active ingredient, observed on 19th to 24th day; for inhibition at 250 g/ha: Digitaria sanguinalis
In short: as §2

[7] = tested on: greenfoxtail (Setaria viridis L.); assay: Test Example 1: foliar treatment, growth inhibition rate, greenfoxtail; format: in vivo; settings: 31 g/ha active ingredient, visually observed 17th to 23rd day after application; for pest or weed control at 31 g/ha: Setaria viridis
In short: as §4

wheat (Triticum spp.) = assay: Test Example 1: foliar treatment, growth inhibition rate, wheat; format: in vivo; settings: 31 g/ha active ingredient, visually observed 17th to 23rd day after application; for pest or weed control at 31 g/ha: Triticum
In short: as §4

Row | Compound | Growth inhibition rate (%) Velvetleaf [1] | Growth inhibition rate (%) Barnyardgrass (barnyardgrass) | Growth inhibition rate (%) redroot pigweed [2] | Growth inhibition rate (%) redroot pigweed (redroot pigweed) | Growth inhibition rate (%) Rice (rice) | Growth inhibition rate (%) Crabgrass [3] | Growth inhibition rate (%) Velvetleaf (velvetleaf) | Growth inhibition rate (%) Corn (corn) | Growth inhibition rate (%) Prickly sida (prickly sida) | Growth inhibition rate (%) Barnyardgrass [4] | Growth inhibition rate (%) Soybean [5] | Growth inhibition rate (%) Rice (rice (Oryza sativa L.)) | Growth inhibition rate (%) Greenfoxtail (greenfoxtail) | Growth inhibition rate (%) Soybean (soybean) | Growth inhibition rate (%) Prickly sida [6] | Growth inhibition rate (%) Corn (corn (Zea mays L.)) | Growth inhibition rate (%) Wheat (wheat) | Growth inhibition rate (%) Crabgrass (crabgrass) | Growth inhibition rate (%) Greenfoxtail [7] | Growth inhibition rate (%) Wheat (wheat (Triticum spp.)) | also measured
1 | CCCCCCCc1c(S(C)(=O)=O)ccc(C(=O)c2cnn(C)c2OC(=O)SCC)c1C [compound 225] | 0% | 0% | 0% | 30% | 0% | 0% | 0% | 0% | 0% | 30% | 50% | 0% | 0% | 0% | 0% | 0% | 0% | 0% | 20% | 0% | –
2 | CCSC(=O)Oc1c(C(=O)c2ccc(C(F)(F)F)cc2S(C)(=O)=O)cnn1CC [compound 68] | 80% | 100% | 75% | 98% | 100% | 40% | 100% | 0% | 95% | 95% | 70% | 60% | 30% | 40% | 70% | 10% | 0% | 60% | 60% | 0% | –
3 | CCOc1c(S(C)(=O)=O)ccc(C(=O)c2cnn(C)c2OC(=O)SCC)c1C [compound 36] | 100% | 100% | 100% | 100% | 80% | 98% | 50% | 0% | 60% | 100% | – | 70% | 100% | 30% | 100% | 10% | 0% | 100% | 100% | 50% | –
4 | CCSC(=O)Oc1c(C(=O)c2ccc(S(C)(=O)=O)c(CC(=O)OC)c2C)cnn1C [compound 64] | 85% | 90% | 80% | 80% | 70% | – | 30% | 0% | 60% | 100% | – | 70% | 50% | 0% | 60% | 0% | 0% | 95% | 65% | 0% | –
5 | CCSC(=O)Oc1c(C(=O)c2ccc(S(C)(=O)=O)c(C(=O)OC)c2C)cnn1C [Compound No. 1, 5-(ethylthio)carbonyloxy-1-methylpyrazol-4-yl 3-(methoxycarbonyl)-2-methyl-4-(methylsulfonyl)phenyl ketone] | – | – | 100% | – | – | – | – | – | – | – | – | – | – | – | 70% | – | – | – | – | – | pest or weed control at 31 g/ha [1]: 100%; inhibition at 250 g/ha (barnyardgrass): 100%; inhibition at 250 g/ha (redroot pigweed): 100%; inhibition at 250 g/ha (rice): 95%; pest or weed control at 31 g/ha [3]: 80%; inhibition at 250 g/ha (velvetleaf): 60%; inhibition at 250 g/ha (corn): 0%; inhibition at 250 g/ha (prickly sida): 60%; pest or weed control at 31 g/ha [4]: 90%; pest or weed control at 31 g/ha (rice (Oryza sativa L.)): 80%; inhibition at 250 g/ha (greenfoxtail): 100%; inhibition at 250 g/ha (soybean): 75%; pest or weed control at 31 g/ha (corn (Zea mays L.)): 10%; inhibition at 250 g/ha (wheat): 10%; inhibition at 250 g/ha (crabgrass): 100%; pest or weed control at 31 g/ha [7]: 100%; pest or weed control at 31 g/ha (wheat (Triticum spp.)): 0%
6 | CCSC(=O)Oc1c(C(=O)c2ccc(S(C)(=O)=O)c(C3=NOCC3)c2C)cnn1C [Compound No. 39, 5-(ethylthio)carbonyloxy-1-methylpyrazol-4-yl 2-methyl-4-(methylsulfonyl)-3-(4,5-dihydroisoxazol-3-yl)phenyl ketone] | – | – | 80% | – | – | – | – | – | – | – | 95% | – | – | – | – | – | – | – | – | – | pest or weed control at 31 g/ha [1]: 90%; inhibition at 250 g/ha (barnyardgrass): 70%; inhibition at 250 g/ha (redroot pigweed): 100%; inhibition at 250 g/ha (rice): 80%; pest or weed control at 31 g/ha [3]: 90%; inhibition at 250 g/ha (velvetleaf): 60%; inhibition at 250 g/ha (corn): 10%; inhibition at 250 g/ha (prickly sida): 70%; pest or weed control at 31 g/ha [4]: 95%; pest or weed control at 31 g/ha (rice (Oryza sativa L.)): 95%; inhibition at 250 g/ha (greenfoxtail): 80%; inhibition at 250 g/ha (soybean): 0%; pest or weed control at 31 g/ha (corn (Zea mays L.)): 0%; inhibition at 250 g/ha (wheat): 0%; inhibition at 250 g/ha (crabgrass): 100%; pest or weed control at 31 g/ha [7]: 95%; pest or weed control at 31 g/ha (wheat (Triticum spp.)): 40%
7 | CCOC(=O)c1c(S(C)(=O)=O)ccc(C(=O)c2cnn(CC)c2OC(=O)SC)c1C [compound 62] | 95% | 80% | 100% | 100% | 70% | 100% | 90% | 0% | 90% | 100% | 90% | 80% | 95% | 0% | – | 10% | 30% | 95% | 100% | 50% | –
